{"source": "patent US11161831B2", "about": "“Methods and compositions for treatment of muscle wasting, muscle weakness, and/or cachexia” (Baylor College of Medicine, priority 2013, dated 2021)", "system": "C2Cl2 myotubes", "assay": "C2Cl2 myotubes exposed to conditioned media from C26 or LLC cancer cells", "type": "cell-based, mouse", "method": "C2Cl2 myotubes. FIG. 36A. Representative western blots of p-Stat3 and Stat3 in C2Cl2 myotubes that were exposed for different times to conditioned media from C26 colon cancer cells. FIG. 36B. C2Cl2 myotubes were pretreated with the Stat3 inhibitor, C188-9, for 2 hours before they were exposed to conditioned media from C26 or LLC cancer cells. Representative western blots for p-Stat3 or Stat3 are shown. FIG. 36C. C2Cl2 myotubes were treated with C188-9 plus conditioned media from C26 cells for different times. Representative western blots for C/EBPδ and myostatin are shown. FIG. 36D. The average sizes of C2Cl2 myotubes was assessed following incubation with conditioned media of C26 cells with or without C188-9 for 72 hours (mean±SEM; p<0.05).\nFIG. 41A. C2Cl2 myotubes were treated with conditioned media from C26 cells with or without C188-9 for 72 hours. A representative western blot showing a decrease in the myosin heavy chain is blocked by C188-9. FIG. 41B. C2Cl2 myotubes were treated with conditioned media from C26 cells with or without C188-9 for 24 hours. Levels of mRNAs of MAFbx/Atrogin-1 and MuRF-1 are shown. FIGS. 41C & 41D. CD2F1 mice bearing C26 tumors were treated with C188-9 for 2 weeks. […] FIG. 41E. […] Results are mean±SEM.\nMouse C2Cl2 myoblasts (ATCC, Manassas, Va.) and LLC cells (Dr. Yi-Ping Li; University of Texas Health Sciences Center, Houston, Tex.) were cultured in DMEM (Cellgro Mediatech, Manassas, Va.), supplemented with 10% FBS (Invitrogen, Carlsbad, Calif.) plus 100 U/ml penicillin and 100 µg/ml streptomycin. C26 cells (a gift from Dr. Vickie Baracos, University of Alberta, Edmonton, Alberta, Canada) were cultured in RPMI 1640 medium (Sigma-Aldrich), supplemented with 10% FBS (Invitrogen, Carlsbad, Calif.), 100 U/ml penicillin, and 100 µg/ml streptomycin.\nAt >80% confluence, the media was changed to DMEM supplemented with 2% horse serum (Sigma-Aldrich) to induce myoblasts to differentiate into myotubes (Zhang et al., 2011). After 36 h, conditioned media (CM) from cultured C26 or LLC cells was collected and centrifuged (450×g, 5 min, 4° C.); media was diluted 1:5 with 2% horse serum before adding cultured C2Cl2 myotubes (Zhang et al., 2011).", "key": {"[1]": {"conditions": "C26 conditioned media, 72 hours"}}, "data": [{"smiles": "COc1ccc(S(=O)(=O)Nc2cc(-c3c(O)ccc4ccccc34)c(O)c3ccccc23)cc1", "note": "[C188-9]", "values": [{"measurement": "expressions of C/EBPδ and myostatin increased by conditioned media", "setting": "C26 conditioned media", "value": "suppressed"}, {"measurement": "increased Atrogin and MuRF-1 mRNA expression", "setting": "C26 conditioned media", "value": "suppressed"}, {"measurement": "decrease in sizes of myotubes by conditioned media", "setting": "[1]", "value": "prevented the decrease"}, {"measurement": "decreased protein level of myosin heavy chain", "setting": "[1]", "value": "blocked"}, {"measurement": "increases in p-Stat3 by C26 or LLC conditioned media", "setting": "C188-9 added 2 h before, 15 min conditioned media", "value": "blocked"}]}]}
